Literature values, collected in patent US20240415845A1, “Compositions of Iboga Alkaloids and Methods of Treatment” (priority 2022, published 2024).

Conditions: in vivo; cited from earlier work

In the case of `CC[C@H]1CC2C[C@H]3c4[nH]c5ccc(O)cc5c4CCN(C2)C13` [noribogaine, Noribogaine], the half-life is given as 28 to 49 h.
